In patent US8361997B2, “Process for preparing a crystalline form of halobetasol propionate” (Taro Pharmaceutical North America, Inc., priority 2005, dated 2013):

Columns and labels:
[1] = cited from earlier work
[2] = Stability of HPLC sample and standard solutions in diluent; format: physicochemical; details: approx. 20 mg in 100 mL diluent (45:55 v/v water and acetonitrile); room temperature for 2 days protected from sunlight
Protocol: (§1) Approximately 20 mg of the crystalline halobetasol propionate sample to be assayed, accurately weighed, was transferred into a 100-mL volumetric flask, and the flask was filled to volume with diluent. The solution was sonicated to ensure complete dissolution. The sample solution was stable at room temperature for 2 days protected from sunlight.
as §1, with “of a” for “of the”, “propionate standard,” for “propionate sample to be assayed,”, “The standard” for “The sample”

## CCC(=O)O[C@]1(C(=O)CCl)[C@@H](C)C[C@H]2[C@@H]3C[C@H](F)C4=CC(=O)C=C[C@]4(C)[C@@]3(F)[C@@H](O)C[C@@]21C [Halobetasol propionate, (6α,11β,16β)-21-chloro-6,9-difluoro-11-hydroxy-16-methyl-17-(1-oxopropoxy)pregna-1,4-diene-3,20-dione]
[1]; organic solvents
  solubility in organic solvents: soluble
[1]; water
  solubility in water: insoluble
[2]
  stability of the solution: stable
